Experimental data as given in paper PMC4838876, “Multivalent display of minimal Clostridium difficile glycan epitopes mimics antigenic properties of larger glycans” (Nature Communications, 2016).

How the values were obtained:
anti-PS-I mAbs = assay: STD-NMR competition experiment; assay type: binding, mouse; conditions: 1 added to 200 μM, saturation transfer time 2 s
Description: Figure 6 Epitope mapping of glycan–mAb interactions by STD-NMR. (a,b) Recognition of disaccharide 3 by mAb 10A1 shown as Lewis structure and three-dimensional model calculated with Glycam[70]. Colours indicate percentages of STD effects. (c) Recognition patterns of 3 by three mAbs. STD spectra were acquired at 2 s saturation transfer time in the presence of mAbs 2C5, 10A1 and 10D6 (from top to bottom). (d) Competition of trisaccharide 2 by pentasaccharide 1.
Owing to the slow off-rates of 1 with all three mAbs, we were unable to determine any STD effects for the pentasaccharide. […] This indicated identical binding sites and confirmed high-affinity binding of 1.
Before the STD-NMR studies, proton resonances of oligosaccharides 1–3 were assigned using standard one-dimensional proton spectra, as well as 2D total correlation spectroscopy (2D-TOCSY), correlation spectroscopy, ^1H–^13C heteronuclear single quantum coherence and ^1H–^13C heteronuclear multiple bond correlation spectra at concentrations varying between 5 and 20 mM in D2O. All NMR studies were measured at 298 K on a Varian PremiumCOMPACT 600 MHz spectrometer equipped with a OneNMR probe. […] A total of 2,048 scans were recorded. […] STD build-up curves for mAb 10A1 were recorded at saturation transfer times of 0.5, 1, 2, 4 and 6 s, adjusting the prescan delay accordingly. […]

mAb 10A1 = assay: Isothermal titration calorimetry (ITC); assay type: binding, mouse
Protocol: Figure 7 IM and thermodynamic analysis of glycan–mAb interactions and conformation of 1. (a) IM analysis. The heat maps represent on- and off-rates of mAb 2C5 to 1 (upper) and 3 (lower). (b) Thermograms acquired using 7 μM of mAb 2C5 and titrating 250 μM of 1 (left) or 3 mM of 3 (right) at 25 °C. Thermodynamic parameters were inferred by nonlinear least-square fits of the data points. (c) Summary of thermodynamic parameters for 1 and 3 interacting with mAbs 2C5 and 10A1. Bars represent mean±s.e.m. of two independent measurements. See Supplementary Fig. 6 for details. (d) One-dimensional proton NMR spectrum, and 2D zTOCSY and NOE spectroscopy (NOESY) NMR spectra of 1 showing the coupled protons to the anomeric protons of the five residues with numbering according to the structure shown in e. Blue circles mark cross-peaks that appear in the NOESY spectrum, whereas not showing a corresponding peak in the zTOCSY. These peaks were marked as inter-residue NOEs and labelled by residue number and proton name. […]
Assuming that 1 had more interactions with the binding pockets, association with 1 would liberate more water molecules during complex formation than 3, thereby producing a more favourable entropy. To investigate this, thermodynamic parameters of mAb interactions with 1 and 3 were measured by ITC (Fig. 7b). […]

## C[C@@H]1O[C@@H](O[C@@H]2[C@@H](O)[C@H](O[C@H]3[C@H](O[C@@H]4O[C@@H](C)[C@H](O)[C@@H](O)[C@H]4O)[C@@H](O)[C@@H](O[C@H]4[C@@H](OCCCCCN)O[C@H](CO)[C@@H](O)[C@@H]4O)O[C@@H]3CO)O[C@H](CO)[C@H]2O)[C@H](O)[C@H](O)[C@H]1O [Compound 1]
anti-PS-I mAbs
  Competition of trisaccharide 2 STD effects (in words): completely diminished any STD effects imposed by 2
mAb 10A1
  binding stoichiometry: 2.6
